Laboratory results taken from patent US20220257550A1, “REDUCING THE VIRAL ACTIVITY OF ELAFIBRANOR WITH RIBOFLAVIN OR DHA” (priority 2019, published 2022).

Test system: Phage T4
Assay: Phage T4 titer in liquid culture of E. coli followed by plaque assay on agar plates (PFU)
Format: cell-based, bacteriophage T4 / E. coli 613
Conditions: compounds 0.02 mg/ml (each), vs untreated control, FIG. 1
Method: (§1) The number of phage particles (PFU) is given. Experiment were done in triplicate.
as §1
Nutritional Products Ltd (Kaiseraugst, Switzerland). All stock solutions were in 20 mg/ml DMSO. All compounds were used at a final concentration of 0.02 mg/ml.
E. coli was grown in liquid LB (lysogeny broth) medium. […] The number of phage particles (PFU) was determined by plating on agar.

CSc1ccc(C(=O)/C=C/c2cc(C)c(OC(C)(C)C(=O)O)c(C)c2)cc1 [elafibranor, Elafibranor]
phage T4 PFU (number of phage particles) (MOI of 0.01, 3 hours at 30° C.): significantly increased | phage T4 PFU (number of phage particles) (MOI of 100/1): significantly increased

Cc1cc2nc3c(=O)[nH]c(=O)nc-3n(C[C@H](O)[C@H](O)[C@H](O)CO)c2cc1C [Riboflavin]
phage T4 PFU (number of phage particles) (MOI of 0.01, 3 hours at 30° C.): decreased | phage T4 PFU (number of phage particles) (MOI of 100/1): decreased
